Reference: patent US20130316990A1, “USE OF VITAMIN D COMPOUNDS” (DSM IP ASSETS B.V., priority 2003, published 2013)
Marks after values point to notes of the source that are not given here.

Legend:
[1] = system: weaner piglets; assay: Bone strength (Newton at the breaking point) in weaner piglets fed supplemented diet, Example 2; type: in vivo; details: for Strength - femur: mean ± SD of 8 determinations
Protocol: Weaner piglets of an initial body weight of 8.4±1.2 kg were fed a diet based on maize, barley and soybean meal ad libitum for 33 days. Groups of 31 animals each were fed as follows:
A: basal diet+1,000 IU/kg vitamin D3
B: basal diet+2,000 IU/kg vitamin D3
C: basal diet +40 μg/kg 25-hydroxy vitamin D3 (Hy.D® 1.25% Beadlet, Roche Vitamins AG, Basel, Switzerland)
D: basal diet+1,000 IU/kg vitamin D3+20 μg/kg 25-hydroxy vitamin D3 (Hy. D® 1.25% Beadlet, Roche Vitamins AG, Basel, Switzerland).
(§1) The effects of the addition of 25-hydroxy vitamin D3 and vitamin D3 to the diet were determined by measuring the strength (Newton at the breaking point) of the bones of the animals.

[2] = system: growing-fattening pigs; assay: Bone strength (Newton at the breaking point) in growing-fattening pigs fed supplemented diet, Example 1; type: in vivo; details: for Strength - metacarpals and metatarsals, relative to group A (100) / Strength - metacarpals, relative to group A (100) / Strength - metatarsals, relative to group A (100): unmedicated basal diet = 100; for Strength - metacarpals / Strength - metatarsals: mean ± SD of 8 determinations; for Strength - metacarpals and metatarsals: mean ± SD of 16 determinations
Protocol: Growing-fattening pigs of an initial body weight of 64.8±5.03 kg were fed a diet based on maize, barley and soybean meal ad libitum for 34 days. Groups of 16 animals each were fed as follows:
A: basal diet (unmedicated),
B: basal diet+1,200 IU/kg vitamin D3
C: basal diet+30 μg/kg 25-hydroxy vitamin D3 (Hy.D® 1.25% Beadlet, Roche Vitamins AG, Basel, Switzerland)
D: basal diet+600 IU/kg vitamin D3+15 μg/kg 25-hydroxy vitamin D3 (Hy.D® 1.25% Beadlet, Roche Vitamins AG, Basel, Switzerland).
as §1

[3] = group C: 30 μg/kg 25-hydroxy vitamin D3, 34 days
[4] = group C: basal diet+30 μg/kg 25-hydroxy vitamin D3, 34 days
[5] = group B: 1,200 IU/kg vitamin D3, 34 days
[6] = group B: basal diet+1,200 IU/kg vitamin D3, 34 days

| SMILES | Strength - femur, relative to group A (100) ([1]; group C: 40 μg/kg 25-hydroxy vitamin D3, 33 days, 1,000 IU/kg vitamin D3 group = 100) | Strength - femur ([1]; group C: basal diet+40 μg/kg 25-hydroxy vitamin D3 (Hy.D 1.25% Beadlet), 33 days) | strength of the bones of the growing-finishing pig (in words) ([2]; Example 1, addition to diet, 34 days) | Strength - metacarpals and metatarsals, relative to group A (100) [2, 3] | Strength - metacarpals, relative to group A (100) [2, 3] | Strength - metatarsals, relative to group A (100) [2, 3] | Strength - metacarpals ([2]; group C: basal diet+30 μg/kg 25-hydroxy vitamin D3 (Hy.D 1.25% Beadlet), 34 days) | Strength - metatarsals [2, 4] | Strength - metacarpals and metatarsals [2, 4] | Strength - femur, relative to group A (100) ([1]; group A: 1,000 IU/kg vitamin D3, 33 days, reference group = 100) | Strength - femur, relative to group A (100) ([1]; group B: 2,000 IU/kg vitamin D3, 33 days, 1,000 IU/kg vitamin D3 group = 100) | Strength - femur ([1]; group B: basal diet+2,000 IU/kg vitamin D3, 33 days) | Strength - metacarpals and metatarsals, relative to group A (100) [2, 5] | Strength - metacarpals, relative to group A (100) [2, 5] | Strength - metatarsals, relative to group A (100) [2, 5] | Strength - metacarpals [2, 6] | Strength - metatarsals [2, 6] | Strength - metacarpals and metatarsals [2, 6] |
| --- | --- | --- | --- | --- | --- | --- | --- | --- | --- | --- | --- | --- | --- | --- | --- | --- | --- | --- |
| C=C1CC[C@H](O)C/C1=C/C=C1\CCC[C@]2(C)[C@@H]([C@H](C)CCCC(C)(C)O)CC[C@@H]12 [25-hydroxy vitamin D3] | (100) | 803 ± 82^a Newton | clearly improved | (112) | (123) | (103) | 520 ± 72^df Newton | 545 ± 105 Newton | 533 ± 88^ac Newton |  |  |  |  |  |  |  |  |  |
| C=C1CC[C@H](O)C/C1=C/C=C1\CCC[C@]2(C)[C@@H]([C@H](C)CCCC(C)C)CC[C@@H]12 [vitamin D3] |  |  |  |  |  |  |  |  |  | (100) | (109) | 873 ± 123^ab Newton | (107) | (109) | (105) | 463 ± 48^ce Newton | 553 ± 169 Newton | 508 ± 113^ac Newton |
